Measured values reported in US8318757B2, “Substituted isoxazoline compound and pest control agent” (Nissan Chemical Industries, Ltd., priority 2007, dated 2012).
Read-outs that look alike come from different tables or passages of the source.

Legend:
Assay type in all cases: in vivo
Plutella xylostella = experiment: whole plant or invertebrate; conditions: 144 h
Protocol: (§1) A 10% emulsifiable concentrate of the compound of the present invention (depending on the type of the compound, a 10% wettable powder was subjected to the test) was diluted with water containing a spreader to prepare a drug solution in a concentration of 10 ppm. In this drug solution, a leaf of cabbage was immersed for about 10 seconds and was air-dried and then put into a petri dish. In the petri dish, five 2 instar larvae of Plutella xylostella per petri dish were released and the petri dish was capped and stored in a thermostatic room of 25° C. The number of killed larvae after 6 days was measured and the mortality was calculated from the following calculation formula: Mortality (%)=(number of killed insect/number of released insect)×100. Here, the test was carried out on the duplicate samples.

Spodoptera litura = experiment: whole plant or invertebrate; conditions: 144 h
Protocol: as §1, with “Spodoptera litura” for “Plutella xylostella”, “same” for “following”, “formula as that in Test Example 1.” for “formula: Mortality (%)=(number of killed insect/number of released insect)×100.”

Spodoptera exigua = experiment: Mortality Test for Spodoptera exigua; conditions: 144 h
Protocol: as §1, with “of 100” for “of 10”, “of Spodoptera exigua” for “of Plutella xylostella”, “the same” for “the following”, “calculation formula as that in Test Example 1.” for “calculation formula: Mortality (%)=(number of killed insect/number of released insect)×100.”

Aculops pelekassi = experiment: whole plant or invertebrate; conditions: 144 h
Protocol: (§2) In a styrol cup having an inner diameter of 7 cm, a wet filtration paper was laid and on the paper, a leaf of mandarin orange cut out so as to have the same diameter as the inner diameter of the cup was laid, followed by inoculating ten larvae of Aculops pelekassi per leaf with the leaf. A 10% emulsifiable concentrate of the compound of the present invention (depending on the type of the compound, a 10% wettable powder was subjected to the test) was diluted with water containing a spreader to prepare a drug solution in a concentration of 100 ppm. The drug solution was sprayed using a rotary spray tower in an amount of 2.5 mL per styrol cup, and the cup was capped and stored in a thermostatic room of 25° C. The number of killed larvae after 6 days was measured and the mortality was calculated from the same calculation formula as that in Test Example 1. Here, the test was carried out on the duplicate samples.

Homona magnanima = experiment: Mortality Test for Homona magnanima; conditions: in Brassica oleracea, 144 h
Protocol: as §1, with “of 100” for “of 10”, “of Homona magnanima” for “of Plutella xylostella”, “the same” for “the following”, “calculation formula as that in Test Example 1.” for “calculation formula: Mortality (%)=(number of killed insect/number of released insect)×100.”

Nilaparvata lugens = experiment: whole plant or invertebrate; conditions: 144 h
Protocol: A 10% emulsifiable concentrate of the compound of the present invention (depending on the type of the compound, a 10% wettable powder was subjected to the test) was diluted with water containing a spreader to prepare a drug solution in a concentration of 500 ppm. In this drug solution, a leaf sheath of rice was immersed for about 10 seconds and was air-dried and then put into a test tube. In the test tube, five 2 instar larvae of Nilaparvata lugens per test tube were released and the test tube was capped with a sponge and stored in a thermostatic room of 25° C. The number of killed larvae after 6 days was measured and the mortality was calculated from the same calculation formula as that in Test Example 1. Here, the test was carried out on the duplicate samples.

Bemisia argentifolii = experiment: whole plant or invertebrate; conditions: 144 h
Protocol: In a styrol cup having an inner diameter of 7 cm, a wet filtration paper was laid and on the paper, a cut-out leaf of tomato on which Bemisia argentifolii laid eggs (10 eggs/leaf) was laid. A 10% emulsifiable concentrate of the compound of the present invention (depending on the type of the compound, a 10% wettable powder was subjected to the test) was diluted with water containing a spreader to prepare a drug solution in a concentration of 500 ppm. The drug solution was sprayed using a rotary spray tower in an amount of 2.5 mL per styrol cup, and the cup was capped and stored in a thermostatic room of 25° C. The number of killed larvae after 6 days was measured and the mortality was calculated from the same calculation formula as that in Test Example 1. Here, the test was carried out on the duplicate samples.

Myzus persicae = experiment: whole plant or invertebrate; conditions: 144 h
Protocol: In a glass petri dish having an inner diameter of 3 cm, a wet absorbent cotton was laid and on the cotton, a leaf of cabbage cut out so as to have the same diameter as the inner diameter of the petri dish was laid, followed by releasing four apterous imagines of Myzus persicae on the leaf. After one day, a 10% emulsifiable concentrate of the compound of the present invention (depending on the type of the compound, a 10% wettable powder was subjected to the test) was diluted with water containing a spreader to prepare a drug solution in a concentration of 500 ppm. The drug solution was sprayed using a rotary spray tower (2.5 mg/cm^2), and the petri dish was capped and stored in a thermostatic room of 25° C. The number of killed imagines after 6 days was measured and the mortality was calculated from the same calculation formula as that in Test Example 1. Here, the test was carried out on the duplicate samples.

Liriomyza trifolii = experiment: whole plant or invertebrate; conditions: 144 h
Protocol: A 10% emulsifiable concentrate of the compound of the present invention (depending on the type of the compound, a 10% wettable powder was subjected to the test) was diluted with water containing a spreader to prepare a drug solution in a concentration of 500 ppm. In this drug solution, a leaf of kidney bean which was cut out to a diameter of 7 cm, on which Liriomyza trifolii laid eggs (10 eggs/leaf) was immersed for about 10 seconds and was air-dried and then laid on a wet filtration paper laid in a styrol cup having an inner diameter of 7 cm. The styrol cup was capped and stored in a thermostatic room of 25° C. The number of killed larvae after 6 days was measured and the mortality was calculated from the same calculation formula as that in Test Example 1. Here, the test was carried out on the duplicate samples.

Cat Flea = experiment: Mortality Test for Cat Flea; conditions: Ctenocephalides felis, 96 h
Protocol: To the bottom surface and the side surface of a petri dish having an inner diameter of 5.3 cm, 400 μL of an acetone solution in which 4 mg of the compound of the present invention was dissolved in 40 mL of acetone (concentration: 100 ppm) was applied and then acetone was volatilized to form a thin film of the compound of the present invention on the inner wall of the petri dish. […] In the petri dish, ten Ctenocephalides felis imagines (male and female were mixed) were released and the petri dish was capped and stored in a thermostat room of 25° C. The number of killed imagines after 4 days was measured and the mortality was calculated from the same calculation formula as that in Test Example 1. Here, the test was carried out on the single sample.

American Dog Tick = experiment: Mortality Test for American Dog Tick; conditions: Dermacentor variabilis, 96 h; thin film in petri dishes, applied drug 0.1 μg/cm^2; protonymphs; after 4 days
Protocol: To the bottom surface and the side surface of two petri dishes having an inner diameter of 5.3 cm, 400 μL of an acetone solution in which 4 mg of the compound of the present invention was dissolved in 40 mL of acetone (concentration: 100 ppm) was applied and then acetone was volatilized to form a thin film of the compound of the present invention on the inner wall of the petri dishes. […] In one of the petri dishes, ten American dog tick (Dermacentor variabilis) protonymphs (male and female were mixed) were released, and the petri dish was capped with the other petri dish. […] The number of killed protonymphs after 4 days was measured and the mortality was calculated from the same calculation formula as that in Test Example 1. Here, the test was carried out on the single sample.

[1] = tested on: Frankliniella occidentalis; experiment: whole plant or invertebrate; conditions: in Phaseolus vulgaris, 48 h
Protocol: as §2, with “kidney bean” for “mandarin orange”, “ten 1 instar” for “ten”, “Frankliniella occidentalis” for “Aculops pelekassi”, “500” for “100”, “2” for “6”

Tetranychus urticae = experiment: whole plant or invertebrate; conditions: in Phaseolus vulgaris, 144 h
Protocol: as §2, with “kidney bean” for “mandarin orange”, “Tetranychus urticae” for “Aculops pelekassi”, “500” for “100”

[2] = drug solution 100 ppm (mark *), cabbage leaf immersed, 2 instar larvae, after 6 days, read-out: mortality

CS(CC(=O)NCc1ccc(C2=NOC(c3cc(Cl)c(Cl)c(C(F)(F)F)c3)(C(F)(F)F)C2)cc1Br)=NC(=O)C(F)(F)F (stereo not drawn) [1-102, N-[2-bromo-4-[5-[3,4-dichloro-5-(trifluoromethyl)phenyl]-5-trifluoromethyl-4,5-dihydroisoxazole-3-yl]phenyl]methyl-2-[N-(trifluoroacetyl)methylsulfinimidoyl]acetamide]
≥ 80%: mortality at 10 ppm (Plutella xylostella; in Brassica oleracea) | mortality at 10 ppm (Spodoptera litura; in Brassica oleracea) | mortality at 100 ppm (Spodoptera exigua; in Brassica oleracea) | mortality at 100 ppm (Aculops pelekassi)

CS(=O)(=O)CC(=O)NCc1ccc(C2=NOC(c3cc(Br)cc(C(F)(F)F)c3)(C(F)(F)F)C2)cc1Cl (stereo not drawn) [1-113, N-[4-[5-[3-bromo-5-(trifluoromethyl)phenyl]-5-trifluoromethyl-4,5-dihydroisoxazole-3-yl]-2-chlorophenyl]methyl-2-(methylsulfonyl)acetamide]
≥ 80%: mortality at 100 ppm (Plutella xylostella; [2]) | mortality at 100 ppm (Spodoptera litura; [2]) | mortality at 100 ppm (Spodoptera exigua; drug solution 100 ppm, cabbage leaf immersed, 2 instar larvae, after 6 days, read-out: mortality) | mortality at 100 ppm (Homona magnanima) | mortality at 500 ppm (Nilaparvata lugens; drug solution 500 ppm, rice leaf sheath immersed, 2 instar larvae, after 6 days, read-out: mortality) | mortality at 500 ppm (Bemisia argentifolii; drug solution 500 ppm sprayed, tomato leaf with eggs, after 6 days, read-out: mortality) | mortality at 500 ppm (Myzus persicae; drug solution 500 ppm sprayed, cabbage leaf, apterous imagines, after 6 days, read-out: mortality) | mortality at 500 ppm (Liriomyza trifolii; drug solution 500 ppm, kidney bean leaf with eggs immersed, after 6 days, read-out: mortality) | mortality at 100 ppm (Aculops pelekassi; drug solution 100 ppm sprayed, mandarin orange leaf, larvae, after 6 days, read-out: mortality)

CSC(SC)C(=O)NCc1ccc(C2=NOC(c3cc(C(F)(F)F)cc(C(F)(F)F)c3)(C(F)(F)F)C2)cc1Cl (stereo not drawn) [1-206, N-[4-[5-[3,5-bis(trifluoromethyl)phenyl]-5-trifluoromethyl-4,5-dihydroisoxazole-3-yl]-2-chlorophenyl]methyl-2,2-bis(methylthio)acetamide]
≥ 80%: mortality at 100 ppm (Spodoptera exigua; in Brassica oleracea) | mortality at 100 ppm (Aculops pelekassi) | mortality at 1 µg/cm2 (Cat Flea) | mortality at 0.1 µg/cm2 (American Dog Tick)

CCSCC(=O)N(C)Cc1ccc(C2=NOC(c3cc(Cl)c(Cl)c(Cl)c3)(C(F)(F)F)C2)cc1Cl (stereo not drawn) [2-002, N-[2-chloro-4-[5-(3,4,5-trichlorophenyl)-5-trifluoromethyl-4,5-dihydroisoxazole-3-yl]phenyl]methyl-2-ethylthio-N-methylacetamide]
≥ 80%: mortality at 100 ppm (Homona magnanima) | mortality at 500 ppm [1] | mortality at 500 ppm (Nilaparvata lugens; in Oryza sativa) | mortality at 500 ppm (Bemisia argentifolii; in Solanum lycopersicum) | mortality at 500 ppm (Myzus persicae; in Brassica oleracea) | mortality at 500 ppm (Tetranychus urticae)

CCS(=O)(=O)CC(=O)N(C)Cc1ccc(C2=NOC(c3cc(Cl)c(Cl)c(Cl)c3)(C(F)(F)F)C2)cc1Cl (stereo not drawn) [2-005, N-[2-chloro-4-[5-(3,4,5-trichlorophenyl)-5-trifluoromethyl-4,5-dihydroisoxazole-3-yl]phenyl]methyl-2-ethylsulfonyl-N-methylacetamide]
≥ 80%: mortality at 100 ppm (Homona magnanima) | mortality at 500 ppm [1] | mortality at 500 ppm (Nilaparvata lugens; in Oryza sativa) | mortality at 500 ppm (Bemisia argentifolii; in Solanum lycopersicum) | mortality at 500 ppm (Myzus persicae; in Brassica oleracea) | mortality at 500 ppm (Liriomyza trifolii; in Phaseolus vulgaris) | mortality at 500 ppm (Tetranychus urticae)
